From the supplement of paper PMC7661543
± gives the standard deviation of the averaged measurements.

Test system: HCC-38
Assay: relative cell number vs DMSO control (72 h) (% of DMSO); higher = less growth inhibition (more cells)
Conditions: sgRNA knockout: sgNT, 10 nM
Method: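 QMAP-Seq: a pool of 5 breast cancer cell lines (ZR-75-1, SKBR3, HCC-38, MDA-MB-231, BT-20), each carrying 12 doxycycline-inducible Cas9 sgRNA perturbations (11 knockouts plus non-targeting sgNT), was treated with compounds for 72 h at four 10-fold doses (10 nM-10 uM or 1 nM-1 uM range). Barcodes were amplified and sequenced, and cell number was interpolated from 293T spike-in standard curves. The result is expressed as % of the median of DMSO wells. Two biological replicates.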

Point of comparison: COc1nc(N)nc2c1ncn2[C@@H]1O[C@H](CO)[C@@H](O)[C@@H]1O [Nelarabine], relative cell number 113 ± 3.4. Against it:
- COc1cc(-n2c(=S)[nH]c3ccccc3c2=O)c(Cl)cc1Cl [Mdivi1] — lower, 95.3 ± 11
- CCOC(=O)c1ccc(N2NC(=O)C(=Cc3ccc([N+](=O)[O-])o3)C2=O)cc1 [PYR41] — lower, 85.8 ± 4.7

Same assay, conditions: sgRNA knockout: sgNT, 100 nM

Point of comparison: CN(C)C(=O)c1ccc(S(=O)(=O)c2ccc(NC(=O)[C@@](C)(O)C(F)(F)F)c(Cl)c2)cc1 [AZD7545], relative cell number 90 ± 14. Against it:
- CC(C)(C#N)c1cc(Cn2cncn2)cc(C(C)(C)C#N)c1 [Anastrozole] — within error, 103 ± 5.8
- COC(=O)[C@]12CCC(C)(C)C[C@H]1[C@H]1C(=O)C=C3[C@@]4(C)C=C(C#N)C(=O)C(C)(C)[C@@H]4CC[C@@]3(C)[C@]1(C)CC2 [BardoxoloneMethyl] — within error, 99.93 ± 0.61
- Cc1sc2c(c1C)C(c1ccc(Cl)cc1)=N[C@@H](CC(=O)OC(C)(C)C)c1nnc(C)n1-2 [(+)-JQ1] — within error, 112 ± 33
- CCOC(=O)CCNc1cc(N2CCc3ccccc3CC2)nc(-c2ccccn2)n1 [GSKJ4] — within error, 98.1 ± 1.7
- O=C1NC(=O)/C(=C/c2ccc3nccc(-c4ccncc4)c3c2)S1 — within error, 85.8 ± 11
- N#Cc1ccc(C(c2ccc(C#N)cc2)n2cncn2)cc1 [Letrozole] — within error, 111 ± 12
- CC(C)n1c(/C=C/C(O)CC(O)CC(=O)O)c(-c2ccc(F)cc2)c2ccccc21 (stereo not given) [Fluvastatin] — within error, 102 ± 6.7
- Cn1nnc2c(C(N)=O)ncn2c1=O [Temozolomide] — within error, 89.6 ± 1.4
- CC(C)(C#N)c1ccc(N2C(=O)OCc3cnc4ccc(-c5cnc6ccccc6c5)cc4c32)cc1 — within error, 97 ± 16
- CC(C)C[C@@H](C=O)NC(=O)[C@H](CC(C)C)NC(=O)[C@H](CC(C)C)NC(=O)OCc1ccccc1 [MG132] — within error, 95.7 ± 16
- C[C@@H](Oc1cc(-c2cnn(C3CCNCC3)c2)cnc1N)c1c(Cl)ccc(F)c1Cl [Crizotinib] — within error, 85.708 ± 0.047
- CN1CCN(c2ccc(C(=O)Nc3n[nH]c4ccc(Cc5cc(F)cc(F)c5)cc34)c(NC3CCOCC3)c2)CC1 [Entrectinib] — within error, 89.3 ± 23
- CC(C)(C)c1cnc(CSc2cnc(NC(=O)C3CCNCC3)s2)o1 [SNS032] — within error, 81.3 ± 2.6
- Nc1ccn([C@@H]2O[C@H](CO)[C@@H](O)C2(F)F)c(=O)n1 [Gemcitabine] — lower, 10.5 ± 0.58
- CCCS(=O)(=O)Nc1ccc(F)c(C(=O)c2c[nH]c3ncc(Cl)cc23)c1F [PLX4720] — within error, 109 ± 15
- CC[C@H](Nc1ncnc2[nH]cnc12)c1nc2cccc(F)c2c(=O)n1-c1ccccc1 [CAL101] — within error, 96.1 ± 14
- COc1nc(N)nc2c1ncn2[C@@H]1O[C@H](CO)[C@@H](O)[C@@H]1O [Nelarabine] — within error, 96.7 ± 16
- COc1cc(-n2c(=S)[nH]c3ccccc3c2=O)c(Cl)cc1Cl [Mdivi1] — within error, 93.4 ± 13
- CCOC(=O)c1ccc(N2NC(=O)C(=Cc3ccc([N+](=O)[O-])o3)C2=O)cc1 [PYR41] — within error, 89.9 ± 13

Same assay, conditions: sgRNA knockout: sgNT, 1000 nM

Point of comparison: Nc1ccn([C@@H]2O[C@H](CO)[C@@H](O)C2(F)F)c(=O)n1 [Gemcitabine], relative cell number 12.9 ± 3.4. Against it:
- CC(C)(C#N)c1cc(Cn2cncn2)cc(C(C)(C)C#N)c1 [Anastrozole] — higher, 115.2 ± 0.88
- COC(=O)[C@]12CCC(C)(C)C[C@H]1[C@H]1C(=O)C=C3[C@@]4(C)C=C(C#N)C(=O)C(C)(C)[C@@H]4CC[C@@]3(C)[C@]1(C)CC2 [BardoxoloneMethyl] — higher, 26.6 ± 3.4
- Cc1sc2c(c1C)C(c1ccc(Cl)cc1)=N[C@@H](CC(=O)OC(C)(C)C)c1nnc(C)n1-2 [(+)-JQ1] — higher, 93.2 ± 1.9
- CCOC(=O)CCNc1cc(N2CCc3ccccc3CC2)nc(-c2ccccn2)n1 [GSKJ4] — higher, 96.1 ± 22
- O=C1NC(=O)/C(=C/c2ccc3nccc(-c4ccncc4)c3c2)S1 — higher, 87.5 ± 1.1
- N#Cc1ccc(C(c2ccc(C#N)cc2)n2cncn2)cc1 [Letrozole] — higher, 95 ± 12
- CC(C)n1c(/C=C/C(O)CC(O)CC(=O)O)c(-c2ccc(F)cc2)c2ccccc21 (stereo not given) [Fluvastatin] — higher, 96.6 ± 11
- Cn1nnc2c(C(N)=O)ncn2c1=O [Temozolomide] — higher, 113 ± 6.5
- CN(C)C(=O)c1ccc(S(=O)(=O)c2ccc(NC(=O)[C@@](C)(O)C(F)(F)F)c(Cl)c2)cc1 [AZD7545] — higher, 97.8 ± 1.1
- CC(C)(C#N)c1ccc(N2C(=O)OCc3cnc4ccc(-c5cnc6ccccc6c5)cc4c32)cc1 — higher, 82.6 ± 15
- CC(C)C[C@@H](C=O)NC(=O)[C@H](CC(C)C)NC(=O)[C@H](CC(C)C)NC(=O)OCc1ccccc1 [MG132] — lower, 5.97 ± 0.84
- C[C@@H](Oc1cc(-c2cnn(C3CCNCC3)c2)cnc1N)c1c(Cl)ccc(F)c1Cl [Crizotinib] — higher, 86.8 ± 2.8
- CN1CCN(c2ccc(C(=O)Nc3n[nH]c4ccc(Cc5cc(F)cc(F)c5)cc34)c(NC3CCOCC3)c2)CC1 [Entrectinib] — higher, 79.1 ± 6.5
- CC(C)(C)c1cnc(CSc2cnc(NC(=O)C3CCNCC3)s2)o1 [SNS032] — within error, 17.3 ± 1.6
- CCCS(=O)(=O)Nc1ccc(F)c(C(=O)c2c[nH]c3ncc(Cl)cc23)c1F [PLX4720] — higher, 110 ± 17
- CC[C@H](Nc1ncnc2[nH]cnc12)c1nc2cccc(F)c2c(=O)n1-c1ccccc1 [CAL101] — higher, 86.7 ± 14
- COc1nc(N)nc2c1ncn2[C@@H]1O[C@H](CO)[C@@H](O)[C@@H]1O [Nelarabine] — higher, 99 ± 21
- COc1cc(-n2c(=S)[nH]c3ccccc3c2=O)c(Cl)cc1Cl [Mdivi1] — higher, 100 ± 10
- CCOC(=O)c1ccc(N2NC(=O)C(=Cc3ccc([N+](=O)[O-])o3)C2=O)cc1 [PYR41] — higher, 101.7 ± 0.8

Same assay, conditions: sgRNA knockout: sgNT, 10000 nM

Point of comparison: COC(=O)[C@]12CCC(C)(C)C[C@H]1[C@H]1C(=O)C=C3[C@@]4(C)C=C(C#N)C(=O)C(C)(C)[C@@H]4CC[C@@]3(C)[C@]1(C)CC2 [BardoxoloneMethyl], relative cell number 5.24 ± 0.59. Against it:
- Cc1sc2c(c1C)C(c1ccc(Cl)cc1)=N[C@@H](CC(=O)OC(C)(C)C)c1nnc(C)n1-2 [(+)-JQ1] — higher, 65.3 ± 1.1
- CCOC(=O)CCNc1cc(N2CCc3ccccc3CC2)nc(-c2ccccn2)n1 [GSKJ4] — higher, 60.8 ± 9.7
- O=C1NC(=O)/C(=C/c2ccc3nccc(-c4ccncc4)c3c2)S1 — higher, 42.38 ± 0.22
- CC(C)n1c(/C=C/C(O)CC(O)CC(=O)O)c(-c2ccc(F)cc2)c2ccccc21 (stereo not given) [Fluvastatin] — higher, 65.4 ± 2.2
- Cn1nnc2c(C(N)=O)ncn2c1=O [Temozolomide] — higher, 137 ± 26
- CN(C)C(=O)c1ccc(S(=O)(=O)c2ccc(NC(=O)[C@@](C)(O)C(F)(F)F)c(Cl)c2)cc1 [AZD7545] — higher, 82.9 ± 1.9
